Where a name gives a salt, the structure may show the parent alone.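 Grown in 96-well plates, cells were treated for 48 hours with each compound at five concentrations. Insufficient inhibition: endpoint recorded as highest concentration tested. Here, GI50 denotes the concentration required for 50% inhibition of growth.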 Active and inactive are the calls of the source. No stated cut-off is given here; in the data, active = GI50 up to about 1.1 µM and inactive = higher. Non-standard residues stand in square brackets, D forms with d. Residues, ends and D or L forms follow the SMILES beside them. ξ: configuration not given here. *: point of attachment. dThr(3ξ) = CC(O)[C@@H](N)C(=O)O; dNMeL = CN[C@H](CC(C)C)C(=O)O; OBn = c1ccc(CO*)cc1; ξLac = CC(O)C(=O)O
How the values were obtained:
Assay in all cases: NCI anticancer screen, dose series, 48 h
SN12C = system: SN12C
ACHN = system: ACHN
OVCAR-8 = system: OVCAR-8
SK-MEL-5 = system: SK-MEL-5
CAKI-1 = system: CAKI-1
EKVX = system: EKVX
Malme-3M = system: Malme-3M
A549 = system: A549
NCI-H23 = system: NCI-H23
COLO 205 = system: COLO 205
UACC-62 = system: UACC-62
HT-29 = system: HT-29
SW-620 = system: SW-620
KM12 = system: KM12
HCC 2998 = system: HCC 2998
786-0 = system: 786-0
T47D = system: T47D
SNB-19 = system: SNB-19
PC-3 = system: PC-3
A498 = system: A498

Measured: GI50

CCCCC(=O)Nc1ccc2cc(C(=O)OC)c(Cl)nc2n1
inactive: SN12C 50 µM | ACHN > 100 µM | OVCAR-8 > 100 µM | SK-MEL-5 > 90.8 µM | CAKI-1 > 60.7 µM | EKVX 59.7 µM | Malme-3M > 100 µM | A549 > 100 µM | NCI-H23 > 100 µM | COLO 205 12.8 µM | UACC-62 > 100 µM | HT-29 > 100 µM | SW-620 > 100 µM | KM12 3.15 µM | HCC 2998 10.9 µM | 786-0 > 100 µM | T47D 7.89 µM | SNB-19 16.5 µM | PC-3 19.7 µM | A498 37.1 µM

COC(=O)[C@]12CCC(C)(C)C[C@H]1C1=CC[C@@H]3[C@@]4(C)CC[C@H](OC5OC(CO)C(O)C(O)C5OC5OC(CO)C(O)C(O)C5O)C(C)(C)[C@@H]4CC[C@@]3(C)[C@]1(C)CC2 (stereo not given in full)
inactive: SN12C 4.62 µM | ACHN 7.55 µM | OVCAR-8 15.9 µM | SK-MEL-5 15.8 µM | CAKI-1 8.81 µM | EKVX 11.9 µM | Malme-3M 11.9 µM | A549 8.83 µM | NCI-H23 7.08 µM | COLO 205 3.09 µM | UACC-62 10.5 µM | HT-29 10.4 µM | SW-620 14.2 µM | KM12 12.6 µM | HCC 2998 14.8 µM | 786-0 11.2 µM | T47D 18.3 µM | SNB-19 14.3 µM | PC-3 3.89 µM | A498 11.3 µM

COc1ccc(C(F)(F)F)cc1NC(=O)O/N=C(/Cl)C(C)C
inactive: SN12C 16.2 µM | ACHN 10.5 µM | OVCAR-8 21.9 µM | SK-MEL-5 10.7 µM | CAKI-1 1.77 µM | EKVX 17.7 µM | Malme-3M 9.62 µM | A549 20.8 µM | NCI-H23 19.7 µM | COLO 205 2.03 µM | UACC-62 18.5 µM | HT-29 23.9 µM | SW-620 3.33 µM | KM12 26.3 µM | HCC 2998 19.9 µM | 786-0 16.9 µM | T47D 20 µM | SNB-19 18.7 µM | PC-3 18.8 µM | A498 28.9 µM

C[C@@]12C=CC3C/C(=N\C(N)=S)C=C(CCCC4OCCO4)[C@]3(CC1)C2 (stereo not given in full)
inactive: SN12C 16.5 µM | ACHN 28.6 µM | OVCAR-8 21.8 µM | SK-MEL-5 12.4 µM | CAKI-1 25.1 µM | EKVX 10.3 µM | Malme-3M 18.4 µM | A549 21.1 µM | NCI-H23 21.3 µM | COLO 205 13.2 µM | UACC-62 16.2 µM | HT-29 11.2 µM | SW-620 20.8 µM | KM12 23.6 µM | HCC 2998 15.1 µM | 786-0 19.3 µM | T47D 22.1 µM | SNB-19 34.5 µM | PC-3 17.4 µM | A498 15.5 µM

Clc1ncnc2c1nc(C#Cc1ccccc1)n2Cc1ccccc1
inactive: SN12C 18.8 µM | ACHN 65.2 µM | OVCAR-8 12.7 µM | SK-MEL-5 32 µM | CAKI-1 18.2 µM | EKVX 13.3 µM | Malme-3M > 100 µM | A549 84.9 µM | NCI-H23 16.6 µM | COLO 205 16.5 µM | UACC-62 30.5 µM | HT-29 24.3 µM | SW-620 4.09 µM | KM12 23.6 µM | HCC 2998 11.4 µM | 786-0 13.7 µM | T47D 39.8 µM | SNB-19 29.9 µM | PC-3 40.6 µM | A498 > 100 µM

CC(=O)OC(C)[C@@H](NC(=O)[C@@H](CC(C)C)N(C)C(=O)[C@@H]1CCCN1C(=O)C(C)O)C(=O)OCc1ccccc1 (stereo not given in full) (H-[ξLac]P[dNMeL][dThr(3ξ)](Ac)-OBn)
inactive: SN12C > 100 µM | ACHN > 100 µM | OVCAR-8 > 100 µM | SK-MEL-5 > 100 µM | CAKI-1 > 100 µM | EKVX > 100 µM | Malme-3M > 100 µM | A549 > 100 µM | NCI-H23 > 100 µM | COLO 205 > 100 µM | UACC-62 > 100 µM | HT-29 > 100 µM | SW-620 > 100 µM | KM12 > 100 µM | HCC 2998 > 100 µM | 786-0 > 100 µM | T47D > 100 µM | SNB-19 > 100 µM | PC-3 > 100 µM | A498 > 100 µM

OC(CNc1ccccn1)c1ccccc1 (stereo not given) [PHENYRAMIDOL HYDROCHLORIDE]
inactive: SN12C 63.1 µM | ACHN > 100 µM | OVCAR-8 > 100 µM | SK-MEL-5 > 100 µM | CAKI-1 > 100 µM | EKVX > 100 µM | Malme-3M > 100 µM | A549 > 100 µM | NCI-H23 > 100 µM | COLO 205 > 100 µM | UACC-62 > 100 µM | HT-29 > 100 µM | SW-620 > 100 µM | KM12 > 100 µM | HCC 2998 > 100 µM | 786-0 > 100 µM | T47D > 100 µM | SNB-19 > 100 µM | PC-3 > 100 µM | A498 > 100 µM

From ChEMBL document CHEMBL1201862, “PubChem BioAssay data set” (2004)
